Experimental data taken from patent publication US11919857B2, “Phthalide derivative, preparation method and use thereof” (LANZHOU INSTITUTE OF CHEMICAL PHYSICS, CHINESE ACADEMY OF …, priority 2018, dated 2024).

What was measured:
[1] = test system: PC12 cells; assay: Protection against hydrogen peroxide-induced oxidative damage to PC12 nerve cells (MTT); format: cell-based; conditions: for protective effect on PC12 nerve cells against hydrogen peroxide (comparison in words): 2.5-50 μM, 250 μM H2O2, FIG. 16
Experimental: 2. Method: PC12 cells were cultured as follows. PC12 cells were inoculated into the high-glucose DMEM medium containing 10% fetal bovine serum, penicillin 100 U mL^−1, and streptomycin 100 μg mL^−1, and cultured in the cell incubator at 37° C. under 5% CO2. The medium was changed every other day. The cells were routinely trypsinized and passaged. The cells were used for experiments when they reached 70-80% confluence.
4. Oxidative damage modeling: PC12 cells in the logarithmic growth phase were inoculated into a 96-well cell culture plate at a density of 5×10^3 cells/well. H2O2 was added at different concentrations, and cultured for 4 h. MTT was added according to the above MTT assay, and A value of each well was measured. The H2O2 concentration at which the cell viability was reduced by 50% was finally selected as the modelling concentration.
Therefore, 250 μM was selected as the induction concentration of nerve cell oxidative damage.
5. Grouping and drug treatment: The experimental groups was divided into the normal blank control group, the H2O2 model group (250 μM), concentration groups (2.5 μM, 5.0 μM, 10 μM, 25 μM, 50 μM) for phthalides and their derivatives, and the positive control group (butylphthalide). Each group for phthalides and their derivatives as well as the positive control group were added with 250 μM H2O2, respectively. In the experiment, the solutions of phthalides and their derivatives were first added respectively, so that the final concentrations reached the corresponding values. After 4 h, H2O2 was added, and MTT was added after 24 h. The A value was measured to calculate the cell viability.

[2] = test system: acute cerebral ischemic infarction (MCAO model); assay: Cerebral infarction in acute ischemic stroke, suture-occluded MCAO model; format: in vivo, Wistar rat; conditions: for therapeutic effect on cerebral infarction (words): 3 days after modeling
Experimental: 1. Experimental animals: […] Wistar male rats (230-250 g), provided by Lanzhou Veterinary Research Institute, Chinese Academy of Agricultural Sciences. 2. […] MCAO model (Middle Cerebral Artery Obstruction in rats) was established through suture-occlusion, and the rats were intraperitoneally injected with 10% chloral hydrate at a dosage of 400 mg/kg for anesthetization. The rats were fixed with supine position method to expose the neck. It was shaved and the skin was cleaned for skin incision. Under gentle operations, the main blood vessels such as left common carotid artery, arteria carotis interna, and arteria carotis externa were separated. The arteria carotis externa was selected to be ligated and disconnected, to avoid the bleeding of the common carotid artery. The common carotid artery was temporarily clamped with an arterial clip. A small opening was cut at the end of arteria carotis […], and used for the placement of the suture-occlusion. The round head of the prepared suture-occlusion was held by the ophthalmic tweezer and gently inserted, with a controlled depth of about 1.8-2.0 cm. The incision was sutured conventionally. After 0.5 h of cerebral ischemia, the suture-occlusion was removed to restore the blood supply. At a certain time after administration, the rats were sacrificed. The brain tissue was stained with 0.5% 2,3,5-triphenyltetrazolium chloride […], and the cerebral infarction area was scanned and calculated, wherein the normal tissue was stained in red and the infarcted tissue was stained in white. 3. Animal grouping: The animals were grouped as follows: the model group (acute ischemia and hypoxia pathological model, administrated with an equal dosage of physiological saline containing 8% Tween-80), the sham operation group (not administrated, as the negative control, administrated with an equal dosage of physiological saline containing 8% Tween-80), the prevention group (administrated 3 days in advance), and treatment group (administrated for 3 days after the blood supply was restored from embolism). 4. Method of administration: […] Results: […] A. Negative model control, infarct area: 30.57%; B. […] C.

[3] = In vivo pharmacokinetics in rats (gavage and intravenous injection), plasma HPLC-DAD; parameters: species or system Wistar rats; T1/2ka: unit not given here; conditions: rat
Experimental: Certain amounts of N-cyclopropyl-3-n-butyl-3-hydroxy-ligusticum lactam and N-cyclopropyl-3-n-butyl-3-hydroxy-phthalide lactam standards were accurately weighed respectively, and dissolved and diluted in the methanol to obtain 2.0 mg/mL of standard stock solutions. Certain standard stock solutions were accurately weighed and mixed respectively, and diluted with methanol to […], 0.7813, 1.5625, 3.1250, 6.2500, 12.500, 25.0000, 50.0000, and 500.0 μg/mL. 20 uL of each sample was analyzed by HPLC system, to sequentially determine N-cyclopropyl-3-n-butyl-3-hydroxy-ligusticum lactam and N-cyclopropyl-3-n-butyl-3-hydroxy-phthalide lactam. The peak area (A) was linearly regressed with the concentration C (g/mL), to obtain the regression equation and linear range, detection limit (LOD), and quantification limit (LOQ).
1.2 Preparation method for test sample: The compound prepared according to Example 7 (the content of N-cyclopropyl-3-n-butyl-3-hydroxy-ligusticum lactam is 92.5%; and the content of the compound N-cyclopropyl-3-n-butyl-3-hydroxy-phthalide lactam is 7.5%) was prepared into the raw stock solution at a concentration of 15 mg/mL by 10% ethanol, 20% Tween 80, and 70% physiological saline. The rats were dosed based on the body weights, with a dosage of 90 mg/Kg by oral administration (by gavage) and a dosage of 40 mg/Kg by intravenous injection.
1.3 Pretreatment method for plasma sample: 0.5 mL of rat whole blood was taken and placed in a 1.5 mL centrifuge tube with 20 uL sodium heparin therein, and centrifuged at a high rotation rate of 4×10^3 r·min^−1 for 5 min. 200 μL of plasma was taken and 800 μL of dichloromethane was added. The mixture was vortexed and centrifuged for 10 min at a rotation rate of […]. The lower layer solution was separate and blown to dryness with nitrogen gas at room temperature, and then reconstituted with 300 μL of methanol. The solution was eluted, filtered, and dried to dryness with nitrogen. After adding 30 μL of methanol, the solution was centrifuged, and 20 μL of the supernatant was used to determine the peak areas by HPLC.
1.4 Determination of pharmacokinetic parameters of phthalide derivatives in rats. Twelve male Wistar rats were randomly divided into two groups, wherein 6 rats were administrated with 40 mg/kg of phthalide derivative (the intravenous injection group (i.v.)). At 0 (pre-dose), 0.167, 0.333, 0.5, 1, 2, 3, 4, and 6 hours after administration, about 500 μL of blood was collected from the Angulus oculis, respectively, and 200 μL of plasma was frozen after anticoagulation treatment and centrifugation. 6 rats in the gavage administration (po) group were administrated by 90 mg/kg of phthalide derivative. At 0 (pre-dose), 0.5, 1, 2, 3, 4, 6, 8, 10, and 12 h after administration, about 500 μL of blood was collected from the Angulus oculis, respectively, and 200 μL of plasma was frozen after anticoagulation treatment and centrifugation. The plasma samples were warmed to the room temperature before pretreatment, and 20 μL of the sample solutions were analyzed by liquid chromatography. The blood drug concentration at each time point was calculated according to the standard curve. The dose-time curve was fitted using DAS2.0 software and the pharmacokinetic parameters were calculated. FIGS. 18 and 19 show the dose-time curves by gavage administration and intravenous injection, respectively.

[4] = test system: β-amyloid-induced neurotoxicity; conditions: through p38 and PI3K/Akt signaling pathways; cited from earlier work
[5] = Rattus norvegicus, PC-12, read-out: cell viability
[6] = treatment group, dosed for 3 days after modeling, 40 mg/kg, intraperitoneal injection
[7] = male, Wistar, in vivo, iv, 40 mg/kg
[8] = male, Wistar, in vivo, po, 90 mg/kg
[9] = po (gavage), 90 mg/kg of Example 7 mixture

CCCCC1(O)C2=C(C=CCC2)C(=O)N1C1CC1 (racemic) [ligustilide derivative, N-cyclopropyl-3-n-butyl-3-hydroxy-ligusticum lactam]
protective effect on PC12 nerve cells against hydrogen peroxide (comparison in words) [1]: strongest protective effect | viability at 2.5 µM [1, 5]: 80% | viability at 10 µM [1, 5]: 95% | infarct area ([2]; prevention group, pre-dosed for 3 days, modeling, dosed for another 3 days, intraperitoneal injection, model control 30.57%): 22% | anti-embolic effect ([2]; prevention group, survived animals): relatively weak anti-embolic effects | therapeutic effect on cerebral infarction (words) ([2]; treatment group, 40 mg/kg, intraperitoneal injection, 40 mg/kg): complete recanalization | therapeutic effect on cerebral infarction (words) ([2]; treatment group, 40 mg/kg, intraperitoneal injection, listed as N-cyclopropyl-3-n-butyl-3-hydroxy-ligusticum lactam, 40 mg/kg): effectively prevent the occurrence of cerebral infarction | infarct area, middle portion [2, 6]: 0% | infarct area, right side, calculated according to the edema removal method [2, 6]: negative value | infarct area, left side ([2]; treatment group, dosed for 3 days after modeling, 40 mg/kg, intraperitoneal injection, model control 30.57%): 4% | AUC(0-inf) [3, 7]: 12100 ng·h/mL | AUC(0-t) [3, 7]: 6020 ng·h/mL | CL1 [3, 7]: 5445.044 L/h/kg | CL2 [3, 7]: 20518.475 L/h/kg | K10 [3, 7]: 1.456 h⁻¹ | K12 [3, 7]: 5.488 h⁻¹ | K21 [3, 7]: 1.17 h⁻¹ | R_AUC(t/∞) [3, 7]: 49.7% | V1 [3, 7]: 3739.124 L/kg | V2 [3, 7]: 17537.504 L/kg | t1/2α [3, 7]: 0.088 h | t1/2β [3, 7]: 3.213 h | AUC(0-inf) [3, 8]: 37100 ng·h/mL | AUC(0-t) [3, 8]: 35300 ng·h/mL | CL1 [3, 8]: 2719.904 L/h/kg | CL2 [3, 8]: 1163.858 L/h/kg | CL3 [3, 8]: 65.258 L/h/kg | Cmax [3, 8]: 8820 ng/mL | K10 [3, 8]: 3.763 h⁻¹ | K12 [3, 8]: 1.61 h⁻¹ | K13 [3, 8]: 0.09 h⁻¹ | K21 [3, 8]: 0.684 h⁻¹ | K31 [3, 8]: 0.272 h⁻¹ | Ka [3, 8]: 4.021 h⁻¹ | R_AUC(t/∞) [3, 8]: 95.4% | T1/2ka [3, 8]: 0.172 | Tmax [3, 8]: 1.2 h | V1 [3, 8]: 722.758 L/kg | V2 [3, 8]: 1701.61 L/kg | V3 [3, 8]: 240.115 L/kg | t1/2α [3, 8]: 0.122 h | t1/2β [3, 8]: 1.478 h | t1/2γ [3, 8]: 2.643 h

CCCCC1OC(=O)c2ccccc21 (centres unmarked) [butylphthalide, reference compound]
cell viability ([1]; drug positive control group, 250 μM H2O2, concentration not given): 68%

CCC/C=C1\OC(=O)C2=C1CCC=C2 [ligustilide, reference compound]
protective effect on PC12 nerve cells against hydrogen peroxide (comparison in words) [1]: stronger than that of n-butenylphthalide | concentration at which β-amyloid-induced neurotoxicity is inhibited [4]: 1 to 30 µM

CCCCC1(O)c2ccccc2C(=O)N1C1CC1 (centres unmarked) [n-butenylphthalide derivative, N-cyclopropyl-3-n-butyl-3-hydroxy-phthalide lactam]
protective effect on PC12 nerve cells against hydrogen peroxide (comparison in words) [1]: almost the same protective effects | CL1 [3, 9]: 893.769 L/h/kg | CL2 [3, 9]: 802.825 L/h/kg | CL3 [3, 9]: -50.58 L/h/kg | K10 [3, 9]: 1.689 h⁻¹ | K12 [3, 9]: 1.517 h⁻¹ | K13 [3, 9]: -0.096 h⁻¹ | K21 [3, 9]: 0.543 h⁻¹ | K31 [3, 9]: 0.167 h⁻¹ | Ka [3, 9]: 2.425 h⁻¹ | R_AUC(t/∞) [3, 9]: 89.9% | T1/2ka [3, 9]: 0.286 | Tmax [3, 9]: 1.768 h | V1 [3, 9]: 529.323 L/kg | V2 [3, 9]: 1478.868 L/kg | V3 [3, 9]: -302.598 L/kg | t1/2α [3, 9]: 0.204 h | t1/2β [3, 9]: 3.029 h | t1/2γ [3, 9]: 3.513 h
